Experimental findings from patent US20060142323A1, “Dual binding site acetylcholinesterase inhibitors for the treatment of alzheimer's disease” (priority 2002, published 2006) are described below.

For data set [1], the target named is T1, AChE from human erythrocytes (Homo sapiens, UniProt P22303).
T1 construct: 0.02 unit/ml AChE (Sigma Chemical Co. from human erythrocytes); purchased Sigma Chemical Co; host or cells: human erythrocytes
The experiment in a line: AChE inhibition (from human erythrocytes), Ellman method. The format is biochemical. Conditions: 10 min preincubation at 30° C., 400 μM acetylthiocholine iodide, pH 8. The method, then: AChE Inhibition (from Human Erythrocytes)
The method of Ellman et al. (Ellman, G. L.; Courtney, K. D.; Andres, B.; Featherstone, R. M. Biochem. Pharmacol. 1961, 7, 88-95) was followed. The assay solution consisted of 0.1 M phosphate buffer pH 8, 200 μM 5,5′-dithiobis(2-nitrobenzoic acid) (DTNB, Ellan's reagent), 0.02 unit/ml AChE (Sigma Chemical Co. from human erythrocytes), and 400 μM acetylthiocholine iodide as the substrate of the enzymatic reaction. The compounds tested were added to the assay solution and pre incubated with the enzyme for 10 min at 30° C. After that period, the substrate was added. The absorbance changes at 412 nm were recorded for 5 min with a Perkin-Elmer 550 SE UV/VIS spectrometer, the reaction rates were compared, and the percent inhibition due to the presence of test compounds was calculated.
For orientation: DTNB colorimetry detects thiols as they appear.

In data set [2] the target is T2, AChE from bovine erythrocytes (Bos taurus, UniProt P23795).
T2 construct: 0.02 units AChE (Sigma Chemical Co. from bovine erythrocytes); purchased Sigma Chemical Co; host or cells: bovine erythrocytes
T2 sequence (P23795 31-614 isoform P23795-2 limits assumed): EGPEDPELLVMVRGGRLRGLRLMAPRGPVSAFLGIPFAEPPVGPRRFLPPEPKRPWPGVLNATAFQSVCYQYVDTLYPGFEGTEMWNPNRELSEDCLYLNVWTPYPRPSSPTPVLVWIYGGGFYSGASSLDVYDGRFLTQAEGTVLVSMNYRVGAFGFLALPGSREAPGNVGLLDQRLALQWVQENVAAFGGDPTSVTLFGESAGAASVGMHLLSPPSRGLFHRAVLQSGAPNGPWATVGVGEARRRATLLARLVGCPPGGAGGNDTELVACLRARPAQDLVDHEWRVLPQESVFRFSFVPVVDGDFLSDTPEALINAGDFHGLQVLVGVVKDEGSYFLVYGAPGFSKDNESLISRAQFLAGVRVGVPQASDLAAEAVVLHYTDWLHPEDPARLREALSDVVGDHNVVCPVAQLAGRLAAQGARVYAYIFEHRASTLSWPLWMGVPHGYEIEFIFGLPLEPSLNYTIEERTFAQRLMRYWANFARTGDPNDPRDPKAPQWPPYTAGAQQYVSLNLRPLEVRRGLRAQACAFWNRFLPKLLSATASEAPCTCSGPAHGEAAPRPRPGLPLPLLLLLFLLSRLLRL
Put plainly: Acetylcholinesterase (AChE) inhibition (from bovine erythrocytes), Ellman method at 30° C., Digiscan 340T. Type of data set: biochemical. The method, then:
Acetylcholinesterase (AChE) Inhibition (from Bovine Erythrocytes)
AChE inhibitory activity was evaluated at 30° C. by the colorimetric method reported by Ellman [Ellman, G. L.; Courtney, K. D.; Andres, B.; Featherstone, R. M. Biochem. Pharmacol. 1961, 7, 88-95]. The assay solution consisted of 0.1 M phosphate buffer pH 8, 0.3 mM 5,5′-dithiobis (2-nitrobenzoic acid) (DTNB, Ellman's reagent), 0.02 units AChE (Sigma Chemical Co. from bovine erythrocytes), and 0.5 mM acetylthiocholine iodide as the substrate of the enzymatic reaction. The compounds tested were added to the assay solution and preincubated with the enzyme for 5 min at 30° C. After that period, the substrate was added. The absorbance changes at 405 nm were recorded for 5 min with a microplate reader Digiscan 340T, the reaction rates were compared, and the percent inhibition due to the presence of test compounds was calculated. The reaction rate was calculated with, at least, triplicate measurements, and the percent inhibition due to the presence of test compound was calculated relative to the compound-free control.

In the next data set the target is T3, BuChE from human serum (Homo sapiens, UniProt P06276).
T3 construct: The assay solution consisted of 0.01 units BuChE from human serum; from tissue; host or cells: human serum
T3 sequence (P06276 29-602): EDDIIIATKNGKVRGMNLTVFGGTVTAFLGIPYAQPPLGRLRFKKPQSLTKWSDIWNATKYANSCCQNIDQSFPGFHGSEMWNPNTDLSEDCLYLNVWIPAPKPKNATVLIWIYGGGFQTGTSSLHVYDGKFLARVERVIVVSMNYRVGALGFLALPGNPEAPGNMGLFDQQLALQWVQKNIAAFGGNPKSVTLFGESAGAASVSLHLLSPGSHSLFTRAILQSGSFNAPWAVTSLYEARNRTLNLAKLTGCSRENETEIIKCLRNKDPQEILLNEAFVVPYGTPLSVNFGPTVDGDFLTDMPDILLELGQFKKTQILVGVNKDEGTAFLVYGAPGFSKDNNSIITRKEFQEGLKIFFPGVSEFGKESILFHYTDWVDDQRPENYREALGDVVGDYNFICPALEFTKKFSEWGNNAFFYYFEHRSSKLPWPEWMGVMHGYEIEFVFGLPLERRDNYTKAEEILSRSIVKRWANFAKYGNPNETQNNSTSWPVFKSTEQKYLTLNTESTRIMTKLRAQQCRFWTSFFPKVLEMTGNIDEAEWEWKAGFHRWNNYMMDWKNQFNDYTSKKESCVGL
Put plainly: Butyrylcholinesterase (BuChE) inhibition (from human serum). The format is biochemical. The procedure: Butyrylcholinetersae (BuChE) Inhibition (from Human Serum)
BuChE inhibitory activity was evaluated at 30° C. by the colorimetric method reported by Ellman (Ellman, G. L.; Courtney, K. D.; Andres, B.; Featherstone, R. M. Biochem. Pharmacol. 1961, 7, 88-95]. The assay solution consisted of 0.01 units BuChE from human serum, 0.1 M sodium phosphate buffer pH 8, 0.3 mM 5,5′-dithiobis (2-nitrobenzoic acid) (DTNB, Ellman's reagent), and 0.5 mM butylthiocholine iodide as the substrate of the enzymatic reaction. Enzyme activity was determined by measuring the absorbance at 405 nm during 5 minutes with a microplate reader Digiscan 340T. The tested compounds were preincubated with the enzyme for 10 minutes at 30° C. The reaction rate was calculated with, at least, triplicate measurements.

Data set [3] deals with human neuroblastoma cell line SH—SY5Y. The experiment in a line: Toxicity measurement (LDH) in SH-SY5Y cells. The format is cell-based. The following applies: 24 hours exposure. The method, then: The cytotoxicity effect of the molecules was tested in the human neuroblastoma cell line SH—SY5Y. These cells were cultured in 96-well plates in minimum essential medium, Han's F12 medium, supplemented with 10% fetal bovine serum, 1% glutamine and 1% penicillin/streptomycin, and grown in. a 5% CO2 humidified incubator at 37° C.
The cells were plated at 10^4 cells for each well, at least, 48 hours before the toxicity measure. Cells were exposed for 24 hours to the compounds at different concentrations (from 10^−5 to 10^−9), quantitative assessment of cell death was made by measurement of the intracellular enzyme lactate dehydrogenase (LDH) (citotoxicity detection kit, Roche). The cuantity of LDH was evaluated in a microplate reader Anthos 2010, at 492 and 620 nm. Controls were taken as 100% viability.

In the next data set the target is AChE peripheral site (Homo sapiens, UniProt P22303). The experiment in a line: Propidium competition (fluorescence). The following applies: 20 μM propidium iodide, AChE incubated at least 6 hours with compound. The format is binding. The procedure: Fluorescence was measured in a Fluostar optima plate reader (BMG). Measurements were carried out in 100 μl solution volume, in 96-well plates. The buffer used was 1 mM Tris/HCl, pH 8.0. […] AChE was incubated, at least 6 hours, with the molecules at different concentrations. 20 μM propidium iodide was added 10 min before fluorescence measurement.
Chain of AChE peripheral site (P22303 32-614): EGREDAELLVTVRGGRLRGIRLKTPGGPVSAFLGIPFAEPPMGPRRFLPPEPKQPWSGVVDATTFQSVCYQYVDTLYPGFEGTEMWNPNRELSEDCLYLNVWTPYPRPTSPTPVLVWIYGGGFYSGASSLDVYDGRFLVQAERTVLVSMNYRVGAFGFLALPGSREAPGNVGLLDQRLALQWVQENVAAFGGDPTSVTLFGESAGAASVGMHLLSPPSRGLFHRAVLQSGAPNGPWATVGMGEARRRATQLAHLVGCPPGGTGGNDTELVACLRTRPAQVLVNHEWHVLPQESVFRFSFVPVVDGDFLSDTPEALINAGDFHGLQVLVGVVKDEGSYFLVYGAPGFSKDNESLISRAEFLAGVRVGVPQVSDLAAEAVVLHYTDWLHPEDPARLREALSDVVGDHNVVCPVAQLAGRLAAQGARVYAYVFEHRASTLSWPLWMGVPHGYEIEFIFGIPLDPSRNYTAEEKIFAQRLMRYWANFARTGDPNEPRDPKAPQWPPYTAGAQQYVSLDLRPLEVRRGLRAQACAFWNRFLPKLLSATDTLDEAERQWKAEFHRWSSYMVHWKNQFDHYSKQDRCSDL

A further data set concerns the target T4, β-amyloid-AChE complex (Homo sapiens, UniProt P22303).
T4 construct: purchased Sigma-Aldrich
The experiment in a line: Inhibition of β-amyloid aggregation (AChE-Aβ complex, Congo Red binding). The format is biochemical. The following applies: propidium iodide 50 μM, Aβ1-40 0.1 mM, Aβ-AChE 200:1, 48 hours. The method, then: Inhibition of β-Amyloid Aggregation:
Stock solutions of Aβ1-40 at 3.5 mM were prepared in DMSO. The amount of peptide used in the assays was 0.1 mM. Human recombinant AChE (Sigma-Aldrich) was used at a molar ratio Aβ-AChE 200:1. For the aggregation studies the peptide was mixed with the appropriate amount of AChE in PBS pH 7.4 and stirred for 48 hours in -a microtiter plate at room temperature. The fibrils obtained were characterized by Congo Red (CR) binding.
For the inhibition of β-amyloid aggregation, the compounds tested were used at the IC50 defined in the previous paragraph of the biological evaluation. Propidium iodide 50 μM for comparison.

Setting [4] is: bovine erythrocytes AChE, 30° C., 5 min preincubation, read-out: IC50 AchE.
Setting [5] is: human serum BuChE, 30° C., 10 min preincubation, read-out: IC50 BuChE.

Each structure is given as a SMILES string. Where two headings read alike, the source gives them in different places.

T4 sequence (P22303 32-614, one chain of several): as the sequence (P22303 32-614) above
T1 sequence (P22303 32-617 isoform P22303-2 limits assumed): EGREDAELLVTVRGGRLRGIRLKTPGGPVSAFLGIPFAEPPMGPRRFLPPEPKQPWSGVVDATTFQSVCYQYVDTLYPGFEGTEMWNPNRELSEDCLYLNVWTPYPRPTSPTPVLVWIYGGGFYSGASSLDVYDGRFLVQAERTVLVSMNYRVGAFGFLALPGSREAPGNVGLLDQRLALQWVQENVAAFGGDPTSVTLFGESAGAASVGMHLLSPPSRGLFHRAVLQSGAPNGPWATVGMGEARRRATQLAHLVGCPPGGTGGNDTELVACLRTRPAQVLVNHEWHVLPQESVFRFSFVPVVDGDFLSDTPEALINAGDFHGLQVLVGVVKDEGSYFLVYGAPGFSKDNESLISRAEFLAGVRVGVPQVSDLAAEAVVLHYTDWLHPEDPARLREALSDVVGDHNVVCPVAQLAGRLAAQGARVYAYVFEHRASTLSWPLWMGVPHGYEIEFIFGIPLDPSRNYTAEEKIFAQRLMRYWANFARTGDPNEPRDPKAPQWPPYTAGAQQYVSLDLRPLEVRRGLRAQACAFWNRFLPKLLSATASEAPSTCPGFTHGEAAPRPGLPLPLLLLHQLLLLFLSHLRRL

On to `COc1cc2c(cc1OC)C(=O)C(CNCCCCCCNc1c3c(nc4ccccc14)CCCC3)C2` (centres unmarked) [Compound 2, 5,6-Dimethoxy-2-{[6-(1,2,3,4-tetrahydro-acridin-9-ylamino)-hexylamino]-methyl}-indan-1-one], for which inhibition in data set [1] was half-maximal at 0.1 µM (IC50).
Regarding `O=C1c2ccccc2C(=O)N1CCCCCCCNc1c2c(nc3ccccc13)CCCC2` [Compound 4, 2-[7-(1,2,3,4-Tetrahydro-acridin-9-ylamino)-heptyl]-isoindole-1,3-dione], the half-inhibitory concentration (IC50) in data set [2] (setting [4]) came to 3 µM; at BuChE from human serum (setting [5]), 0.01 µM. This molecule also displayed a Toxicity in data set [3] greater than 100 µM. In addition, the Propidium competition at AChE peripheral site came out at 10 µM.
`O=C1c2ccccc2C(=O)N1CCCCCCCCNc1c2c(nc3ccccc13)CCCC2` [Compound 5, 2-[8-(1,2,3,4-Tetrahydro-acridin-9-ylamino)-octyl]-isoindole-1,3-dione]: the IC50 is 0.09 µM in data set [2] (setting [4]) and 0.03 µM at BuChE from human serum (setting [5]). Besides, in data set [3], the Toxicity was found to be 5 µM. In addition, at AChE peripheral site, the Propidium competition was greater than 100 µM.
On to `O=C1c2ccccc2C(=O)N1CCCCCCNc1c2ccccc2nc2ccccc12` [Compound 6, 2-[6-(Acridin-9-ylamino)-hexyl]-isoindole-1,3-dione], for which the figures for the IC50 (in data set [2] (setting [4]); on BuChE from human serum (setting [5])) were 0.9 µM and 0.008 µM, respectively. The molecule further came in with a Toxicity in data set [3] greater than 100 µM. The Propidium competition on AChE peripheral site came out at 10 µM.
As to `O=C1c2ccccc2C(=O)N1CCCCCCCCNc1c2ccccc2nc2ccccc12` [Compound 8, 2-[8-(Acridin-9-ylamino)-octyl]-isoindole-1,3-dione], the IC50 (in data set [2] (setting [4]); at BuChE from human serum (setting [5])) was 1 µM each time. The molecule also returned a Toxicity in data set [3] of 100 µM. On AChE peripheral site, the Propidium competition was greater than 100 µM.
Regarding `O=C1c2ccccc2C(=O)N1CCCCCCCCCNc1c2ccccc2nc2ccccc12` [Compound 9, 2-[9-(Acridin-9-ylamino)-nonyl]-isoindole-1,3-dione], the IC50 in data set [2] (setting [4]) was determined as 0.002 µM; on BuChE from human serum (setting [5]) it was 0.09 µM. Further, the Toxicity in data set [3] was greater than 100 µM. Moreover, the Propidium competition on AChE peripheral site was 1 µM.
Take `O=C(CN1C(=O)c2ccccc2C1=O)NCCCCCCCNc1c2c(nc3cc(Cl)ccc13)CCCC2` [Compound 10, N-[7-(6-Chloro-1,2,3,4-tetrahydro-acridin-9-ylamino)-heptyl]-2-(1,3-dioxo-1,3-dihydro-isoindol-2-yl)-acetamide]: the IC50 turned out to be 0.02 µM in data set [2] (setting [4]) and 0.65 µM on BuChE from human serum (setting [5]). Further, the Toxicity in data set [3] was greater than 100 µM. Besides, the Propidium competition at AChE peripheral site is 10 µM.
With `CN(CCCNC(=O)CN1C(=O)c2ccccc2C1=O)CCCNc1c2c(nc3cc(Cl)ccc13)CCCC2` [Compound 11, N-(3-{[3-(6-Chloro-1,2,3,4-tetrahydro-acridin-9-ylamino)-propyl]-methyl-amino}-propyl)-2-(1,3-dioxo-1,3-dihydro-isoindol-2-yl)-acetamide], the IC50 in data set [2] (setting [4]) stood at 0.003 µM; at BuChE from human serum (setting [5]), 0.075 µM. The same molecule came in with a Toxicity in data set [3] greater than 100 µM. Besides, the Propidium competition on AChE peripheral site turned out to be 10 µM.
Turning to `O=C(CN1C(=O)c2ccccc2C1=O)NCCCCCCNc1c2c(nc3cc(Cl)ccc13)CCCC2` [Compound 12, N-[6-(6-Chloro-1,2,3,4-tetrahydro-acridin-9-ylamino)-hexyl]-2-(1,3-dioxo-1,3-dihydro-isoindol-2-yl)-acetamide], the IC50 in data set [2] (setting [4]) stood at 0.01 µM; at BuChE from human serum (setting [5]) it was 0.2 µM. Further, the Toxicity in data set [3] was greater than 100 µM. The Propidium competition at AChE peripheral site was found to be 100 µM.
For `CCn1c(=NCCCCCCCCNc2c3c(nc4ccccc24)CCCC3)sn(C(C)C)c1=O` [Compound 17, 4-Ethyl-2-isopropyl-5-[8-(1,2,3,4-tetrahydro-acridin-9-ylamino)-octylimino]-[1,2,4]thiadiazolidin-3-one], the results for the IC50 (in data set [2] (setting [4]); on BuChE from human serum (setting [5])) were 0.2 µM and 0.01 µM, respectively. This molecule displayed a Toxicity in data set [3] greater than 100 µM. The Propidium competition on AChE peripheral site came out at 0.1 µM.
As for `CCn1c(=NCCCCCCNc2c3c(nc4ccccc24)CCCC3)sn(C(C)C)c1=O` [Compound 18, 4-Ethyl-2-isopropyl-5-[6-(1,2,3,4-tetrahydro-acridin-9-ylamino)-hexyl-imino]-[1,2,4]thiadiazolidin-3-one], the IC50 in data set [2] is 2.25 µM; against BuChE from human serum, 1 µM. This molecule also registered a Toxicity in data set [3] greater than 10 µM. Moreover, the Propidium competition on AChE peripheral site was greater than 100 µM.
Turning to `CN(CCCNc1c2c(nc3cc(Cl)ccc13)CCCC2)CCCNc1c2c(nc3cc(Cl)ccc13)CCCC2` [Compound 19], the 50% inhibitory concentration (IC50) in data set [2] (setting [4]) amounted to 0.0001 µM; at BuChE from human serum (setting [5]), 0.0015 µM. In addition, the Toxicity in data set [3] came to 10 µM. Besides, the Propidium competition on AChE peripheral site was 10 µM.
Turning to `Clc1ccc2c(NCCCCCCCCNc3c4ccccc4nc4ccccc34)c3c(nc2c1)CCCC3` [Compound 24, N-Acridin-9-yl-N′-(6-chloro-1,2,3,4-tetrahydro-acridin-9-yl)-octane-1,8-diamine], the results for the IC50 (in data set [2] (setting [4]); on BuChE from human serum (setting [5])) were 0.001 µM and 0.035 µM, respectively. Further, the Toxicity in data set [3] was found to be 5 µM. Besides, on AChE peripheral site, the Propidium competition amounted to 10 µM.
With `CC[N+](C)(CC)CCC[n+]1c(-c2ccccc2)c2cc(N)ccc2c2ccc(N)cc21` [propidium, Propidium iodide, reference compound], the “reduction of the β-amyloid-AChE complex aggregation” value on β-amyloid-AChE complex stood at 18.1%.

Usually IC50 stands for the concentration at which inhibition is half-maximal.
